Patent US20160264570A1, “METHOD OF BLOCKING TRANSMISSION OF MALARIAL PARASITE” (THE UNITED STATES OF AMERICA, AS REPRESENTED BY THE …, priority 2013, published 2016)
Read-outs that look alike come from different tables or passages of the source.

Tests used:
[1] = system: P. falciparum strain 3D7 gametocytes; assay: alamarBlue gametocyte viability assay, strain 3D7; conditions: for EC50: read-out: Gametocytocidal activity EC50
[2] = system: Asexual parasites of P. falciparum strain 3D7; assay: SYBR Green viability assay on asexual parasites; type: cell-based, Plasmodium falciparum; conditions: for EC50: read-out: Activity against asexual parasites EC50
[3] = system: P. falciparum strain HB3 gametocytes; assay: alamarBlue gametocyte viability assay, strain HB3; conditions: Plasmodium falciparum, HB3, read-out: HB3-IC50, Table 3; 11 concentrations, 1:3 dilution, three times
[4] = Plasmodium falciparum, 3D7, read-out: 3D7-IC50

Row | SMILES | EC50 ([1]; Table 6) | EC50 ([2]; Table 6) | further results
1 | O=c1ccc2cnc3ccc(-c4ccccc4)cc3c2n1-c1cccc(C(F)(F)F)c1 | 627 nM | 113 nM | –
2 | O=c1ccc2cnc3ccc(-c4ccncc4)cc3c2n1-c1cccc(C(F)(F)F)c1 | 246 nM | 92 nM | –
3 | Nc1ncc(-c2ccc3ncc4ccc(=O)n(-c5cccc(C(F)(F)F)c5)c4c3c2)cn1 | 40 nM | 22 nM | –
4 | O=c1ccc2cnc3ccc(-c4cccnc4)cc3c2n1-c1cccc(C(F)(F)F)c1 | 535 nM | 110 nM | –
5 | O=c1ccc2cnc3ccc(-c4cncnc4)cc3c2n1-c1cccc(C(F)(F)F)c1 | 942 nM | 475 nM | –
6 | CCn1c(=O)ccc2cnc3ccc(-c4ccc(N)nc4)cc3c21 | 1650 nM | 1270 nM | –
7 | CC(=O)Nc1ccc(-c2ccc3ncc4ccc(=O)n(-c5cccc(C(F)(F)F)c5)c4c3c2)cn1 | 114 nM | 106 nM | –
8 | Cc1nc(N)ncc1-c1ccc2ncc3ccc(=O)n(-c4cccc(C(F)(F)F)c4)c3c2c1 | 2260 nM | 1150 nM | –
9 | O=c1ccc2cnc3ccc(-c4ccc5[nH]ccc5c4)cc3c2n1-c1cccc(C(F)(F)F)c1 | 325 nM | 191 nM | –
10 | O=c1ccc2cnc3ccc(-c4ccc5[nH]ncc5c4)cc3c2n1-c1cccc(C(F)(F)F)c1 | 74 nM | 64 nM | –
11 | Nc1ccc(-c2ccc3ncc4ccc(=O)n(-c5cccc(C(F)(F)F)c5)c4c3c2)cc1 | 147 nM | 99 nM | –
12 | O=c1ccc2cnc3ccc(-c4cn[nH]c4)cc3c2n1-c1cccc(C(F)(F)F)c1 | 246 nM | 131 nM | –
13 | O=c1ccc2cnc3ccc(-c4ccc5[nH]cnc5c4)cc3c2n1-c1cccc(C(F)(F)F)c1 | 96 nM | 37 nM | –
14 | Cc1ccc(C(F)(F)F)cc1-n1c(=O)ccc2cnc3ccc(-c4ccc(N)nc4)cc3c21 | 65 nM | 44 nM | –
15 | Cc1cccc(-n2c(=O)ccc3cnc4ccc(-c5ccc(N)nc5)cc4c32)c1 | 19 nM | 23 nM | –
16 | Nc1ccc(-c2ccc3ncc4ccc(=O)n(-c5cccc(Cl)c5)c4c3c2)cn1 | 18 nM | 10 nM | –
17 | N#Cc1cccc(-n2c(=O)ccc3cnc4ccc(-c5ccc(N)nc5)cc4c32)c1 | 23 nM | 12 nM | –
18 | COc1cccc(-n2c(=O)ccc3cnc4ccc(-c5ccc(N)nc5)cc4c32)c1 | 137 nM | 95 nM | –
19 | Nc1ccc(-c2ccc3ncc4ccc(=O)n(-c5cccc(S(N)(=O)=O)c5)c4c3c2)cn1 | 295 nM | 82 nM | –
20 | Nc1ccc(-c2ccc3ncc4ccc(=O)n(-c5ccc(N6CCNCC6)c(C(F)(F)F)c5)c4c3c2)cn1 | 10 nM | 9 nM | –
21 | O=c1ccc2cnc3ccc(-c4cnc5ccccc5c4)cc3c2n1-c1cccc(C(F)(F)F)c1 | 2270 nM | 1180 nM | –
22 | Nc1ccc(-c2ccc3ncc4ccc(=O)n(CC5CCNCC5)c4c3c2)cn1 | 11500 nM | 6440 nM | –
23 | Nc1ccc(-c2ccc3ncc4ccc(=O)n(-c5ccccc5)c4c3c2)cn1 | 47 nM | 33 nM | –

Row | SMILES | EC50 ([1]; Table 6) | EC50 ([2]; Table 6) | further results
24 | O=c1ccc2cnc3ccc(N4CCNCC4)cc3c2n1-c1cccc(C(F)(F)F)c1 | 22000 nM | > 20000 nM | –
25 | O=c1ccc2cnc3ccc(C4=CCNCC4)cc3c2n1-c1cccc(C(F)(F)F)c1 | 18400 nM | 15700 nM | –
26 | CN(C)C(=O)c1cccc(-n2c(=O)ccc3cnc4ccc(-c5ccc(N)nc5)cc4c32)c1 | 1520 nM | 859 nM | –
27 | Nc1ccc(-c2ccc3ncc4ccc(=O)n(-c5cccc(Oc6ccccc6)c5)c4c3c2)cn1 | 2430 nM | 1670 nM | –
28 | CCOc1cccc(-n2c(=O)ccc3cnc4ccc(-c5ccc(N)nc5)cc4c32)c1 | 912 nM | 683 nM | –
29 | CN(C)c1ncc(-c2ccc3ncc4ccc(=O)n(-c5cccc(C(F)(F)F)c5)c4c3c2)cn1 | 3130 nM | 1950 nM | –
30 | Nc1ccc(-c2ccc3ncc4ccc(=O)n(C5CCNCC5)c4c3c2)cn1 | 2800 nM | 2370 nM | –
31 | Nc1ccc(-c2ccc3ncc4ccc(=O)n(C5CC5)c4c3c2)cn1 | 215 nM | 560 nM | –
32 | Nc1ccc(-c2ccc3ncc4ccc(=O)n(C5CCOCC5)c4c3c2)cn1 | 41 nM | 1340 nM | –
33 | Nc1ccc(-c2ccc3ncc4ccc(=O)n(C5CCCCC5)c4c3c2)cn1 | 676 nM | 707 nM | –
34 | Nc1ccc(-c2ccc3ncc4ccc(=O)n(C5CCCC5)c4c3c2)cn1 | 1260 nM | 882 nM | –
35 | O=c1ccc2cnc3ccc(-c4cccc(C(F)(F)F)c4)cc3c2n1-c1cccc(C(F)(F)F)c1 | 3380 nM | 4200 nM | –
36 | O=c1ccc2cnc3ccc(Br)cc3c2n1-c1cccc(C(F)(F)F)c1 | 4950 nM | 5580 nM | –
37 | Nc1cccc(-c2ccc3ncc4ccc(=O)n(-c5cccc(C(F)(F)F)c5)c4c3c2)c1 | 103 nM | 120 nM | –
38 | CN(C)c1cccc(-c2ccc3ncc4ccc(=O)n(-c5cccc(C(F)(F)F)c5)c4c3c2)c1 | 3290 nM | 3250 nM | –
39 | C=Cc1ccc2ncc3ccc(=O)n(-c4cccc(C(F)(F)F)c4)c3c2c1 | 4900 nM | 3240 nM | –
40 | NC(=O)c1ccc(-c2ccc3ncc4ccc(=O)n(-c5cccc(C(F)(F)F)c5)c4c3c2)cc1 | 1270 nM | 1060 nM | –
41 | N#Cc1cccc(-c2ccc3ncc4ccc(=O)n(-c5cccc(C(F)(F)F)c5)c4c3c2)c1 | 526 nM | 283 nM | –
42 | O=c1ccc2cnc3ccc(-c4ccc5sccc5c4)cc3c2n1-c1cccc(C(F)(F)F)c1 | 3210 nM | 1640 nM | –
43 | CS(=O)(=O)c1ccc(-c2ccc3ncc4ccc(=O)n(-c5cccc(C(F)(F)F)c5)c4c3c2)cc1 | 491 nM | 266 nM | –
44 | O=c1ccc2cnc3ccc(-c4ccc5nonc5c4)cc3c2n1-c1cccc(C(F)(F)F)c1 | 4520 nM | 1720 nM | –
45 | O=c1ccc2cnc3ccc(-c4ccc(N5CCCCC5)nc4)cc3c2n1-c1cccc(C(F)(F)F)c1 | 8090 nM | 4900 nM | –
46 | Cc1ccc(-c2ccc3ncc4ccc(=O)n(-c5cccc(C(F)(F)F)c5)c4c3c2)cn1 | 65 nM | 33 nM | –

Row | SMILES | EC50 ([1]; Table 6) | EC50 ([2]; Table 6) | further results
47 | NS(=O)(=O)c1ccc(-c2ccc3ncc4ccc(=O)n(-c5cccc(C(F)(F)F)c5)c4c3c2)cc1 | 303 nM | 384 nM | –
48 | CN(C)C(=O)c1ccc(-c2ccc3ncc4ccc(=O)n(-c5cccc(C(F)(F)F)c5)c4c3c2)cc1 | 1990 nM | 2080 nM | –
49 | O=c1ccc2cnc3ccc(-c4ccc(-c5ccccc5)cc4)cc3c2n1-c1cccc(C(F)(F)F)c1 | 19300 nM | 15000 nM | –
50 | Cc1ccc(-c2ccc3ncc4ccc(=O)n(-c5cccc(C(F)(F)F)c5)c4c3c2)cc1 | 794 nM | 372 nM | –
51 | O=c1ccc2cnc3ccc(-c4cncc(Cl)c4)cc3c2n1-c1cccc(C(F)(F)F)c1 | 8800 nM | 3590 nM | –
52 | O=c1ccc2cnc3ccc(-c4cccc(N5CCCC5)c4)cc3c2n1-c1cccc(C(F)(F)F)c1 | 16100 nM | 13300 nM | –
53 | O=C(c1ccc(-c2ccc3ncc4ccc(=O)n(-c5cccc(C(F)(F)F)c5)c4c3c2)cc1)N1CCNCC1 | 5570 nM | 7870 nM | –
54 | O=C(c1ccc(-c2ccc3ncc4ccc(=O)n(-c5cccc(C(F)(F)F)c5)c4c3c2)cc1)N1CCOCC1 | 22400 nM | 12000 nM | –
55 | O=c1ccc2cnc3ccc(-c4ccc(O)nc4)cc3c2n1-c1cccc(C(F)(F)F)c1 | 262 nM | 187 nM | –
56 | NS(=O)(=O)c1cccc(-c2ccc3ncc4ccc(=O)n(-c5cccc(C(F)(F)F)c5)c4c3c2)c1 | 342 nM | 128 nM | –
57 | O=C1NCCc2cc(-c3ccc4ncc5ccc(=O)n(-c6cccc(C(F)(F)F)c6)c5c4c3)ccc21 | 3170 nM | 1130 nM | –
58 | O=C1CCc2cc(-c3ccc4ncc5ccc(=O)n(-c6cccc(C(F)(F)F)c6)c5c4c3)ccc2N1 | 3170 nM | 1130 nM | –
59 | NCc1ccc2ncc3ccc(=O)n(-c4cccc(C(F)(F)F)c4)c3c2c1 | 281 nM | 163 nM | –
60 | CN(C)Cc1ccc2ncc3ccc(=O)n(-c4cccc(C(F)(F)F)c4)c3c2c1 | 666 nM | 242 nM | –
61 | CNC(=O)c1ccc(-c2ccc3ncc4ccc(=O)n(-c5cccc(C(F)(F)F)c5)c4c3c2)cc1 | 61 nM | 17 nM | –
62 | O=C1Cc2cc(-c3ccc4ncc5ccc(=O)n(-c6cccc(C(F)(F)F)c6)c5c4c3)ccc2N1 | 51 nM | 19 nM | –
63 | O=C1NCc2cc(-c3ccc4ncc5ccc(=O)n(-c6cccc(C(F)(F)F)c6)c5c4c3)ccc21 | 1790 nM | 517 nM | –
64 | CNc1ccc2oc(C[C@H]3O[C@@]4(CC[C@H]3C)O[C@H]([C@H](C)C(=O)c3ccc[nH]3)[C@H](C)C[C@H]4C)nc2c1C(=O)O [Calcimycin] | – | – | IC50 [3]: 5.9 µM; IC50 [1, 4]: 2640 nM
65 | CCN(CC)Cc1nccn1-c1ccc([N+](=O)[O-])cc1C(=O)c1ccccc1Cl [Nizofenone] | – | – | IC50 [3]: 14.8 µM; IC50 [1, 4]: 23500 nM
66 | CCC(=O)N1CCN(c2ccc(-n3c(=O)ccc4cnc5ccc(-c6cnc7ccccc7c6)cc5c43)cc2C(F)(F)F)CC1 [Torin 1, reference compound] | – | – | IC50 ([1]; read-out: IC50 against 3D7 gametocytes): 1600 nM; times less potent than Torin 2 against asexual parasites [2]: 78 times; IC50 ([2]; read-out: IC50 in viability assay using asexual parasites): 215 nM
67 | Nc1ccc(-c2ccc3ncc4ccc(=O)n(-c5cccc(C(F)(F)F)c5)c4c3c2)cn1 [drawing 333] | 18 nM | 6 nM | –
68 | Cn1c(=O)n(-c2cccc(C(F)(F)F)c2)c2c3cc(-c4cccc(C#N)c4)ccc3ncc21 [drawing 455] | – | – | EC50 ([1]; Table 7): 2820 nM; EC50 ([2]; Table 7): 546 nM
69 | Cn1c(=O)n(-c2cccc(C(F)(F)F)c2)c2c3cc(-c4cccc(C#N)c4)ccc3ncc21 [drawing 462] | – | – | EC50 ([1]; Table 7): 314 nM; EC50 ([2]; Table 7): 59 nM
